Where a SMILES comes first, the peptide text is derived from it. Bridges are numbered along the chain shown (N, C = ends). [ ]: non-standard residue; d: D form. The star is where a group is joined. hPhe(3-Cl-4-CF3) = N[C@@H](CCc1ccc(C(F)(F)F)c(Cl)c1)C(=O)O; NPrPhe(4-CF3) = CCCN[C@@H](Cc1ccc(C(F)(F)F)cc1)C(=O)O; NMeGly(cPent) = CN[C@H](C(=O)O)C1CCCC1; Hyp = O=C(O)[C@@H]1C[C@@H](O)CN1; NMeD = CN[C@@H](CC(=O)O)C(=O)O; NMeL = CN[C@@H](CC(C)C)C(=O)O; Morpholide = C1CN(*)CCO1; NMeA = CN[C@@H](C)C(=O)O; Ac5c = NC1(C(=O)O)CCCC1; Aze = O=C(O)[C@@H]1CCN1; Ac4c = NC1(C(=O)O)CCC1; NPrGly = CCCNCC(=O)O; NEtG = CCNCC(=O)O; Sar = CNCC(=O)O
Key:
[1] = biological target: GDP-bound NRAS wild-type protein (Homo sapiens, UniProt P01111); assay: Binding to NRAS by surface plasmon resonance (SPR), Single Cycle Kinetics; conditions: SPR
[2] = biological target: GDP-bound HRAS wild-type protein (Homo sapiens, UniProt P01112); assay: Binding to HRAS by surface plasmon resonance (SPR), Single Cycle Kinetics; conditions: SPR
[3] = KD ratio, GDP-bound NRAS wild-type vs GDP-bound KRAS wild-type
[4] = KD ratio, GDP-bound HRAS wild-type vs GDP-bound KRAS wild-type

Sequence of GDP-bound NRAS wild-type protein (P01111 whole entry): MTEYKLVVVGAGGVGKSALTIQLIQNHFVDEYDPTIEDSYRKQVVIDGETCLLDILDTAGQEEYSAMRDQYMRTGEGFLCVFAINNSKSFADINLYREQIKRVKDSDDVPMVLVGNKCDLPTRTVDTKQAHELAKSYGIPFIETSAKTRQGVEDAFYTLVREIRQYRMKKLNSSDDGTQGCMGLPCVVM
Sequence of GDP-bound HRAS wild-type protein (P01112 whole entry): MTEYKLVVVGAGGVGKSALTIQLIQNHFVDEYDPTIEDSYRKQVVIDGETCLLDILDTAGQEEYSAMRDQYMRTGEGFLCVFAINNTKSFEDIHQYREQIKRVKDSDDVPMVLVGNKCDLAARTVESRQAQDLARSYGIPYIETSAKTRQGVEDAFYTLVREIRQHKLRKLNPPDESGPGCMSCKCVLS

Structure (SMILES): CCO[C@@H]1C[C@H]2C(=O)NC3(CCC3)C(=O)N(C)[C@@H](C3CCCC3)C(=O)N(C)[C@H](C(=O)N3CCOCC3)CC(=O)N(C)[C@@H](CC)C(=O)N[C@@H]([C@@H](C)CC)C(=O)N(C)CC(=O)N(C)[C@H]3CC(C)=CCN(C3=O)[C@@H](Cc3ccc(C(F)(F)F)cc3)C(=O)N(C)CC(=O)N[C@@H](CCc3cc(F)c(C(F)(F)F)c(F)c3)C(=O)N2C1 [PP1041]
- NRAS/KRAS (ratio of KD value with respect to NRAS to KD value with respect to KRAS) [1, 3]: C (A compound having a KD ratio of 0.1 or more and less than 3 is denoted as C)
- HRAS/KRAS (ratio of KD value with respect to HRAS to KD value with respect to KRAS) [2, 4]: C (A compound having a KD ratio of 0.1 or more and less than 3 is denoted as C)

Structure (SMILES): CCCN1C(=O)CN(C)C(=O)CNC(=O)[C@H]([C@@H](C)CC)NC(=O)[C@H](CC(C)C)N(C)C(=O)C[C@@H](C(=O)N(C)C)NC(=O)[C@H](C2CCCC2)N(C)C(=O)C2(CCC2)NC(=O)[C@@H]2C[C@@H](OCC)CN2C(=O)[C@H](CCc2ccc(C(F)(F)F)c(Cl)c2)NC(=O)CN(C)C(=O)[C@@H]1Cc1ccc(C(F)(F)F)cc1 [PP0366] ([NMeL]IG[Sar][NPrPhe(4-CF3)][Sar][hPhe(3-Cl-4-CF3)][Hyp](Et)[Ac4c][NMeGly(cPent)]D-NMe2; lactam N-11)
- NRAS/KRAS (ratio of KD for GDP-bound NRAS wild-type to KD for KRAS) ([1]; KD ratio NRAS/KRAS): B (a compound having 3 or more and less than 10 is denoted as B)
- HRAS/KRAS (ratio of KD for GDP-bound HRAS wild-type to KD for KRAS) ([2]; KD ratio HRAS/KRAS): B (a compound having 3 or more and less than 10 is denoted as B)

Structure (SMILES): CCC[C@H]1C(=O)N[C@@H](C2CCCC2)C(=O)N(C)CC(=O)N(C)[C@H]2C/C=C\CCN(C2=O)[C@@H](Cc2ccc(C)cc2)C(=O)N(C)CC(=O)N[C@@H](CCc2ccc(C(F)(F)F)c(OC)c2)C(=O)N2CC3(CC3)C[C@H]2C(=O)NC2(CC(C)(C)C2)C(=O)N(C)[C@@H](C2CCCC2)C(=O)N(C)[C@H](C(=O)N(C)C)CC(=O)N1C [PP2994]
- NRAS/KRAS (ratio of KD value with respect to GDP-bound NRAS wild-type protein to KD value with respect to KRAS) ([1]; KD ratio NRAS/KRAS, GDP-bound wild-type proteins): AA (a compound having 20 or more is denoted as AA)
- HRAS/KRAS (ratio of KD value with respect to GDP-bound HRAS wild-type protein to KD value with respect to KRAS) ([2]; KD ratio HRAS/KRAS, GDP-bound wild-type proteins): A (a compound having 10 or more and less than 20 is denoted as A)

Structure (SMILES): CCCN1C(=O)CN(C)C(=O)CN(C)C(=O)[C@H]([C@@H](C)CC)NC(=O)[C@H](CC(C)C)N(C)C(=O)C[C@@H](C(=O)N2CCOCC2)N(C)C(=O)[C@H](C2CCCC2)N(C)C(=O)C2(CCC2)NC(=O)[C@H](C)N(C)C(=O)[C@H](CCc2ccc(C(F)(F)F)c(Cl)c2)NC(=O)CN(C)C(=O)[C@@H]1Cc1ccc(C(F)(F)F)cc1 [PP1916] ([NMeL]I[Sar][Sar][NPrPhe(4-CF3)][Sar][hPhe(3-Cl-4-CF3)][NMeA][Ac4c][NMeGly(cPent)][NMeD]-Morpholide; lactam N-11)
- NRAS/KRAS (ratio of KD value for NRAS to KD value for KRAS) [1, 3]: B (a compound having 3 or more and less than 10 is denoted as B)
- HRAS/KRAS (ratio of KD value for HRAS to KD value for KRAS) [2, 4]: C (A compound having a KD ratio of 0.1 or more and less than 3 is denoted as C)

Structure (SMILES): CCCN1C(=O)CN(C)C(=O)[C@@H]2CCN2C(=O)[C@H]([C@@H](C)CC)NC(=O)[C@H](CC(C)C)N(C)C(=O)C[C@@H](C(=O)N(C)C)NC(=O)[C@H](C2CCCC2)N(C)C(=O)C2(CCCC2)NC(=O)[C@@H]2CCCN2C(=O)[C@H](CCc2ccc(C(F)(F)F)c(Cl)c2)NC(=O)CN(C)C(=O)[C@@H]1Cc1ccc(C(F)(F)F)cc1 [PP0373] ([NMeL]I[Aze][Sar][NPrPhe(4-CF3)][Sar][hPhe(3-Cl-4-CF3)]P[Ac5c][NMeGly(cPent)]D-NMe2; lactam N-11)
- NRAS/KRAS (ratio of KD for GDP-bound NRAS wild-type to KD for KRAS) ([1]; KD ratio NRAS/KRAS): B (a compound having 3 or more and less than 10 is denoted as B)
- HRAS/KRAS (ratio of KD for GDP-bound HRAS wild-type to KD for KRAS) ([2]; KD ratio HRAS/KRAS): B (a compound having 3 or more and less than 10 is denoted as B)

Structure (SMILES): CCO[C@@H]1C[C@H]2C(=O)NC3(CC(C)(C)C3)C(=O)N(C)[C@@H](C(CC)CC)C(=O)N(C)[C@H](C(=O)N(C)C)CC(=O)N(C)[C@@H](C(C)C)C(=O)N[C@@H]([C@@H](C)CC)C(=O)N(C)CC(=O)N(C)[C@H]3C/C=C\CCN(C3=O)[C@@H](Cc3ccc(C(F)(F)F)cc3)C(=O)N(C)CC(=O)N[C@@H](CCc3ccc(Cl)c(Cl)c3)C(=O)N2C1 [PP2181]
- NRAS/KRAS (ratio of KD value with respect to NRAS to KD value with respect to KRAS) ([1]; GDP-bound NRAS wild-type vs GDP-bound KRAS wild-type): AA (a compound having 20 or more is denoted as AA)
- HRAS/KRAS (ratio of KD value with respect to HRAS to KD value with respect to KRAS) ([2]; GDP-bound HRAS wild-type vs GDP-bound KRAS wild-type): A (a compound having 10 or more and less than 20 is denoted as A)

Structure (SMILES): CCCN1CC(=O)NC2(CCCC2)C(=O)N(C)[C@@H](C2CCCC2)C(=O)N(C)[C@H](C(=O)N2CCOCC2)CC(=O)N(C)[C@@H](CC(C)C)C(=O)N[C@@H]([C@@H](C)CC)C(=O)N(CC)CC(=O)N(C)CC(=O)N(CCC)[C@@H](Cc2ccc(C(F)(F)F)cc2)C(=O)N(C)CC(=O)N[C@@H](CCc2ccc(C(F)(F)F)c(Cl)c2)C1=O [PP0301] ([NMeL]I[NEtG][Sar][NPrPhe(4-CF3)][Sar][hPhe(3-Cl-4-CF3)][NPrGly][Ac5c][NMeGly(cPent)][NMeD]-Morpholide; lactam N-11)
- NRAS/KRAS (ratio of KD for GDP-bound NRAS wild-type to KD for KRAS) ([1]; KD ratio NRAS/KRAS): B (a compound having 3 or more and less than 10 is denoted as B)
- HRAS/KRAS (ratio of KD for GDP-bound HRAS wild-type to KD for KRAS) ([2]; KD ratio HRAS/KRAS): C (A compound having a KD ratio of 0.1 or more and less than 3 is denoted as C)

Source: US20250230193A1, “CYCLIC COMPOUND HAVING SELECTIVE KRAS INHIBITORY EFFECT ON HRAS AND NRAS” (CHUGAI SEIYAKU KABUSHIKI KAISHA, priority 2022, published 2025)
